Laboratory results as given in US5801222A, “Isolation and structure of the human cancer cell growth inhibitory cyclic octapeptides phakellistatin 10 and 11” (Arizona Board of Regents acting on behalf of Arizona State …, priority 1994, dated 1998).
Residues, ends and D or L forms follow the SMILES beside them.

What was measured:
[1] = test system: NCI's 60-cell line human tumor panel; test: NCI 60-cell line human tumor in vitro screen; assay type: cell-based; conditions: 60-cell line panel; 10^-5 M high test concentration, log10 dilutions; 48 hours; read-out: overall panel-averaged GI50 concentration
Excerpt: The following measures are used to express drug activity by giving the drug dose which reduces cell growth to a specified percentage of growth:
ED50 (P388) and GI50 (HTCL) are the drug doses needed to reduce the percent growth to 50%. There is no mathematical difference between ED50 and GI50, which are both calculated using the same formula. The only difference is historical usage.
Total Growth Inhibition ("TGI") is the drug dose needed to yield zero percent growth, i.e., just as many cells at the end of the experiment as were present in the beginning. Whether just as many cells were killed as were produced (steady state), or no growth occurred (total inhibition), cannot be distinguished. […]
Percent Growths are calculated for each dose. […]
(§1) At the start of an experiment, cells from the in vitro cell cultures are inoculated into the appropriate tubes or microtiter plates. One set of control tubes/plates is immediately counted to determine the number of cells at the start of the experiment. This is the "baseline count", or "Tzero reading". At the end of the experiment (48 hours later) a second set of control tubes/plates is analyzed to determine the "Control Growth" value. The growth (or death) of cells relative to the initial quantity of cells is used to define the "Percent of Growth". […]

CNS cancer cell lines = test: NCI in vitro screen, CNS cancer cell lines; assay type: cell-based, human
Method: (§2) Total Growth Inhibition ("TGI") is the drug dose needed to yield zero percent growth, i.e., just as many cells at the end of the experiment as were present in the beginning. Whether just as many cells were killed as were produced (steady state), or no growth occurred (total inhibition), cannot be distinguished.
(§3) Each drug is tested at five (5) doses: 100-10-1-0.1-0.01 μg/ml. Percent Growths are calculated for each dose. The two (or three) doses with growth values above, below, (or near to) 50% growth are used to calculate the ED50 /GI50 using a linear regression formula. The log of the dose is used during the regression computation. If no dose yields a growth value under 50%, the results are expressed as: ED50 >(highest dose). If no dose yields growth higher than 50% growth, then ED50 <(lowest dose). […]
as §1

breast cancer cell lines = test: NCI in vitro screen, breast cancer cell lines; assay type: cell-based, human; conditions: two breast cancer cell lines
Method: as §2, §3, §1

[2] = test system: MDA-MB-435 breast cancer cell line; test: NCI in vitro screen, MDA-MB-435; assay type: cell-based, human
Excerpt: as §2
(§4) Lethal Concentration 50% ("LC50 ") is the drug concentration which reduces growth to -50%, i.e., removes half of the cells originally present at the beginning of the experiment.
Each drug is tested at five (5) doses: 100-10-1-0.1-0.01 μg/ml. Percent Growths are calculated for each dose. The two (or three) doses with growth values above, below, (or near to) 50% growth are used to calculate the ED50 /GI50 using a linear regression formula. The log of the dose is used during the regression computation. […]
as §1

ovarian cancer cell line = test: NCI in vitro screen, ovarian cancer cell line; assay type: cell-based, human; conditions: one ovarian cancer cell line
Method: as §2, §3, §1

five other cell lines = test: NCI in vitro screen, five other cell lines; assay type: cell-based, human; conditions: five other cell lines (not named)
Method: as §4
Each drug is tested at five (5) doses: 100-10-1-0.1-0.01 μg/ml. Percent Growths are calculated for each dose. The two (or three) doses with growth values above, below, (or near to) 50% growth are used to calculate the ED50 /GI50 using a linear regression formula. The log of the dose is used during the regression computation. If no dose yields a growth value under 50%, the results are expressed as: ED50 >(highest dose). If no dose yields growth higher than 50% growth, then ED50 <(lowest dose). Similar calculations are performed for the TGI at 0% growth, and at -50% growth for the LC50.
as §1

[3] = test system: non-small cell lung cancer cell line; test: NCI in vitro screen, non-small cell lung cancer cell line; assay type: cell-based, human; conditions: one non-small cell lung cancer cell line
Method: as §2, §3, §1

Compound | GI50 [1] [nM] | Total Growth Inhibition (TGI) (CNS cancer cell lines; two CNS cancer cell lines) | Total Growth Inhibition (TGI) (breast cancer cell lines) | LC50 [2] | Total Growth Inhibition (TGI) (ovarian cancer cell line) | Total Growth Inhibition (TGI) (CNS cancer cell lines; one CNS cancer cell line) | LC50 (five other cell lines) | Total Growth Inhibition (TGI) [3]
cyclo-(Pro-Leu-Thr-Pro-Ile-Pro-Trp-Val) (PLTPIPWV; head-to-tail cyclic) [phakellistatin 10, cyclic octapeptide isolated from the marine sponge Phakellia sp] | 790 | less than 10^-6 M per milliliter | less than 10^-6 M per milliliter | less than 10^-5 M per milliliter |  |  |  | 
CC[C@H](C)[C@@H]1NC(=O)[C@H](Cc2ccccc2)NC(=O)[C@@H]2CCCN2C(=O)[C@H](Cc2ccccc2)NC(=O)[C@@H]2CCCN2C(=O)[C@H](CCC(N)=O)NC(=O)[C@@H]2CCCN2C(=O)[C@H](Cc2ccccc2)NC1=O [phakellistatin 11, cyclo-(Pro-Gln-Pro-Phe-Pro-Phe-Ile-Phe)] (cyclo(FIFPQPFP)) | 132 |  | less than 10^-7 M per milliliter | less than 10^-5 M per milliliter | less than 10^-7 M per milliliter | less than 10^-7 M per milliliter | less than 10^-5 M per milliliter | less than 10^-7 M per milliliter
